These results are taken from ChEMBL document CHEMBL3991601, “The target landscape of clinical kinase drugs” (Science, 2017).

Structures are written as SMILES. Structures can show the parent of a compound that is named as a salt. Calls of active or inactive are those of the source. For most assays here, no stated cut-off is given here; in the data, actives have a measured Kd and inactives only a lower limit. Some results are limits rather than exact numbers.

The target of assay [1] is Structural maintenance of chromosomes protein 2 (Homo sapiens, UniProt O95347).
For assay [2], the target named is T1, Serine/threonine-protein kinase D2 (Homo sapiens, UniProt Q9BZL6).
T1 sequence (Q9BZL6 whole entry): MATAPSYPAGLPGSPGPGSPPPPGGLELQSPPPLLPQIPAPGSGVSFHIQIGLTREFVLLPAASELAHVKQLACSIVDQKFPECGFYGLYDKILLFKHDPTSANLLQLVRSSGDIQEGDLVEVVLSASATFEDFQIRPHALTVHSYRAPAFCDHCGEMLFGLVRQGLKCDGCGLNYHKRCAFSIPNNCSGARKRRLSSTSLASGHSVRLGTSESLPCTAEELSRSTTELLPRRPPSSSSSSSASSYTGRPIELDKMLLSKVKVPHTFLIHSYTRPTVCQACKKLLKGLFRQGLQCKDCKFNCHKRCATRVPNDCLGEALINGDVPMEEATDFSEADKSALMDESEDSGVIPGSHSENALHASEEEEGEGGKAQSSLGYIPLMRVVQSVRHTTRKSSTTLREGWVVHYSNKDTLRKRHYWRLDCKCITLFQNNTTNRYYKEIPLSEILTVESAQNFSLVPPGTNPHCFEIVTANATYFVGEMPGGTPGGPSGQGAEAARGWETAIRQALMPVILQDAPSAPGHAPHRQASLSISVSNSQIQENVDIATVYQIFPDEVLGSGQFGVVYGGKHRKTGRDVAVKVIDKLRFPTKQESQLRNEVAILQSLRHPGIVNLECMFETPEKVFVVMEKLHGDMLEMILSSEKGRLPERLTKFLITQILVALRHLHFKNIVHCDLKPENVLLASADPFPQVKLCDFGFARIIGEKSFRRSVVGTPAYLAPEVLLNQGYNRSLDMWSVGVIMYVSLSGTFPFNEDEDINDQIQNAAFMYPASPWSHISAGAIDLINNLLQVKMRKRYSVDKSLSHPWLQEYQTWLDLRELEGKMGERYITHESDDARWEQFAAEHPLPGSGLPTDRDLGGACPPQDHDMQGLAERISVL

Assay [3] has as its target T2, Mitogen-activated protein kinase kinase kinase kinase 2 (Homo sapiens, UniProt Q12851).
T2 sequence (Q12851 whole entry): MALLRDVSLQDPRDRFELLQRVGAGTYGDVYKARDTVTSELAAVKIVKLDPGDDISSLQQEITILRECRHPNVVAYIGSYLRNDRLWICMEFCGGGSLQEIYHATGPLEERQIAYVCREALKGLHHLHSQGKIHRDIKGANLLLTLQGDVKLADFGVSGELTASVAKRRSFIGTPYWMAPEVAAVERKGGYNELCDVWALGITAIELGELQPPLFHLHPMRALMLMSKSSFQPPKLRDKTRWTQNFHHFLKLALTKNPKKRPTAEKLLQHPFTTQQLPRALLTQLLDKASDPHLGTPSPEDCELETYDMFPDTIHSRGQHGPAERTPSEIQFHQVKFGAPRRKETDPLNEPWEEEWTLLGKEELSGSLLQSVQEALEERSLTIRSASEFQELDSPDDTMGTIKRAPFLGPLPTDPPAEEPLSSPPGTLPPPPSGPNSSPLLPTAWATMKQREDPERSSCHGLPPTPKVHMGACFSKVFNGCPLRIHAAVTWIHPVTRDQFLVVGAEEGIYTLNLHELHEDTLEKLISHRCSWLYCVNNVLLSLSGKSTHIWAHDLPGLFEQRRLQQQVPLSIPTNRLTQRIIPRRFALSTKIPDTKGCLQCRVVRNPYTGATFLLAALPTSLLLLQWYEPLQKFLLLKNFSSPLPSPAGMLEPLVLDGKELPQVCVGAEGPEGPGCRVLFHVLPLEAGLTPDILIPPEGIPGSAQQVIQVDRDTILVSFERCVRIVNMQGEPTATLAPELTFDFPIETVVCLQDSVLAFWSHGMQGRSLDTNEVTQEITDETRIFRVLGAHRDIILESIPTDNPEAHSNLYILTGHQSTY

Assay [4] concerns the target Hepatocyte growth factor receptor (Homo sapiens, UniProt P08581).
Assay [5] concerns the target Serine/threonine-protein kinase MRCK gamma (Homo sapiens, UniProt Q6DT37).
The target of assay [6] is Dual specificity tyrosine-phosphorylation-regulated kinase 1A (Homo sapiens, UniProt Q13627).
The target in assay [7] is ATP-dependent RNA helicase DDX3X (Homo sapiens, UniProt O00571).
Assay [8] deals with Protein kinase C beta type (Homo sapiens, UniProt P05771).
Protein kinase C beta type, sequence (P05771 whole entry): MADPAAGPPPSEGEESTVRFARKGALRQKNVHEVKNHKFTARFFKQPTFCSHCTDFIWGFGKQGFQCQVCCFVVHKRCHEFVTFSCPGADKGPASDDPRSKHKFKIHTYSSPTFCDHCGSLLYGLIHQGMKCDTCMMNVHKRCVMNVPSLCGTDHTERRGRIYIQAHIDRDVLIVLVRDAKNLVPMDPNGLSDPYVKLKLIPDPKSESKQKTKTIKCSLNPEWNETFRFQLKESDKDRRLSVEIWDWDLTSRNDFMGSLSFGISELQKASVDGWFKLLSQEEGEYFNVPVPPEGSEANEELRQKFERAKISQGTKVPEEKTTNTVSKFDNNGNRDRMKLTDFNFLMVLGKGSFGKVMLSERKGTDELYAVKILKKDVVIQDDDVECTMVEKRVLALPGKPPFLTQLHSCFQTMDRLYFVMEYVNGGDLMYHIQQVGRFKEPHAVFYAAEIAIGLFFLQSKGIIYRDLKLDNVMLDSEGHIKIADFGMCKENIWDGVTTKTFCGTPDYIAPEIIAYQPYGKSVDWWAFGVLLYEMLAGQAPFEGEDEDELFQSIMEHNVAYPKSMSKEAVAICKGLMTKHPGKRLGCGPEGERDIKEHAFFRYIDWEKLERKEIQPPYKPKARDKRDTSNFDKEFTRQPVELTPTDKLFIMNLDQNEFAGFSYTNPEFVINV

Hepatocyte growth factor receptor, sequence (P08581 whole entry): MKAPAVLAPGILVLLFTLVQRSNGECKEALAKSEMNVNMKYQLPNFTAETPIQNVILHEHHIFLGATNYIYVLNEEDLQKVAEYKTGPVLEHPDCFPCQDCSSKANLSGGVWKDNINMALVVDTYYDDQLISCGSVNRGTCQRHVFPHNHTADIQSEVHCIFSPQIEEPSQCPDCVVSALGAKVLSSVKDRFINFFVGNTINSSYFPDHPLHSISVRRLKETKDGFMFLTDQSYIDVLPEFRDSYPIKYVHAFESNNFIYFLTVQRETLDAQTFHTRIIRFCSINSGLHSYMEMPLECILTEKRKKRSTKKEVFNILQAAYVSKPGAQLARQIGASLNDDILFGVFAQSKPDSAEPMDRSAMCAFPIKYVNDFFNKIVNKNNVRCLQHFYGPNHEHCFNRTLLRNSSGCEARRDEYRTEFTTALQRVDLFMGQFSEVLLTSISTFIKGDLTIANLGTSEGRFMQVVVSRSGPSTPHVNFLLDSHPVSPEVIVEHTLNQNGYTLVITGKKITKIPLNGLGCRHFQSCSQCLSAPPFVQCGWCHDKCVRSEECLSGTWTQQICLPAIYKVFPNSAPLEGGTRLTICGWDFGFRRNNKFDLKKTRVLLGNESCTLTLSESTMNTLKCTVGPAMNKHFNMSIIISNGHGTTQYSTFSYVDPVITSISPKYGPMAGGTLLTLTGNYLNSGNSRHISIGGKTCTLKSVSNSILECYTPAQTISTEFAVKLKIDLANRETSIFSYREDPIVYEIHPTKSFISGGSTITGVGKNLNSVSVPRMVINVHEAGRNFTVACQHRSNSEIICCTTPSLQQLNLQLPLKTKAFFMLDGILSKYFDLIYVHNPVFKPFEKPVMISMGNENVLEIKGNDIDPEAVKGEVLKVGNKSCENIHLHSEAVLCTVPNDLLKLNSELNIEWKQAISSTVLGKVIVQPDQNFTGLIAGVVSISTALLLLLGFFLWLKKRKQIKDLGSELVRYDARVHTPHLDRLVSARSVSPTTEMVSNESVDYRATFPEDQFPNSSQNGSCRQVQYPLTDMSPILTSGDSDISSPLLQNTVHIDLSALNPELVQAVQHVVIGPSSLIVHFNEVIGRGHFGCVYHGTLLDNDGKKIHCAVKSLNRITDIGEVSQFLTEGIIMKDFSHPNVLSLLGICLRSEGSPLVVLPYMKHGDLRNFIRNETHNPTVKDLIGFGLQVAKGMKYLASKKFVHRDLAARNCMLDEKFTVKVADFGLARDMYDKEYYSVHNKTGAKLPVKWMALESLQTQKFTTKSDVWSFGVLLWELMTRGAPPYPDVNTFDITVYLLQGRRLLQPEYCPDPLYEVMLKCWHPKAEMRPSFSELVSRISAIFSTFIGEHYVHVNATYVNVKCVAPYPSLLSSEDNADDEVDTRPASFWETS
Serine/threonine-protein kinase MRCK gamma, sequence (Q6DT37 whole entry): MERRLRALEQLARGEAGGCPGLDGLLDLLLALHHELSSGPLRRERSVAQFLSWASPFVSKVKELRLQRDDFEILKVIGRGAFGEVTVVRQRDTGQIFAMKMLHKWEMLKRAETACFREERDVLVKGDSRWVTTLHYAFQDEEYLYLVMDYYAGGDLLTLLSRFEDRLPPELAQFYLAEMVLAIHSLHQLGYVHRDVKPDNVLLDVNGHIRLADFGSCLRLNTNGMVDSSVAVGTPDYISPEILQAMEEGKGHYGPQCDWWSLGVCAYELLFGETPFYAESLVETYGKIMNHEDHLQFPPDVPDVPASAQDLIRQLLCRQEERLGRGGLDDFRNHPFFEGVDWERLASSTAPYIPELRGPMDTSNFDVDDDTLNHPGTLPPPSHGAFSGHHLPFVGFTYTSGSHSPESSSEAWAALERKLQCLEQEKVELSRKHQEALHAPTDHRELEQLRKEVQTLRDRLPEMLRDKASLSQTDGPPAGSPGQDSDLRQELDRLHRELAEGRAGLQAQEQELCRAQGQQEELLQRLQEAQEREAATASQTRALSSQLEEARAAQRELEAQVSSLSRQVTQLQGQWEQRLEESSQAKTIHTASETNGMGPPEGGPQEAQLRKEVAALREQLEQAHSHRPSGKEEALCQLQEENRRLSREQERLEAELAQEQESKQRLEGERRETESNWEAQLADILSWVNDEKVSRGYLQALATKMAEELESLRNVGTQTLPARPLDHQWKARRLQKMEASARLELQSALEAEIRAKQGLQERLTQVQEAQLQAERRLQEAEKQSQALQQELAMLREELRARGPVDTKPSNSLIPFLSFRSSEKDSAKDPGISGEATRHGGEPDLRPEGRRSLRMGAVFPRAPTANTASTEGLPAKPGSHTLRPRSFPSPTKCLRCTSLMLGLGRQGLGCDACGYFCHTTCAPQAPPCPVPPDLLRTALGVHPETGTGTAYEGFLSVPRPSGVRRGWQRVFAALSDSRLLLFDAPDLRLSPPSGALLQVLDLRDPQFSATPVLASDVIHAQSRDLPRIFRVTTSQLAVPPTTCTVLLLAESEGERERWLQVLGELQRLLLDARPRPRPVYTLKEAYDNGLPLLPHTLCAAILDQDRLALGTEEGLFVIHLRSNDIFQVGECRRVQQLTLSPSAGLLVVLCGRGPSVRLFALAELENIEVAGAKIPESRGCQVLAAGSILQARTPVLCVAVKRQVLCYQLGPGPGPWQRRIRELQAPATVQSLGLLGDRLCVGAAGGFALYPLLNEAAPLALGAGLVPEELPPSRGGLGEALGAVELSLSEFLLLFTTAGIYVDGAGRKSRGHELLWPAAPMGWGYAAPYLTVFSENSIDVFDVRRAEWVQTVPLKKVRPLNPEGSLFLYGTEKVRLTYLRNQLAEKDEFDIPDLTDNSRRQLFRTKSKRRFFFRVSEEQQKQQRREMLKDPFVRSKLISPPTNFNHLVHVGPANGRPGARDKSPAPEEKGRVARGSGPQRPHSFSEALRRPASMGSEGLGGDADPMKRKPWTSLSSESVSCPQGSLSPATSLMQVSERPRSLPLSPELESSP
ATP-dependent RNA helicase DDX3X, sequence (O00571 whole entry): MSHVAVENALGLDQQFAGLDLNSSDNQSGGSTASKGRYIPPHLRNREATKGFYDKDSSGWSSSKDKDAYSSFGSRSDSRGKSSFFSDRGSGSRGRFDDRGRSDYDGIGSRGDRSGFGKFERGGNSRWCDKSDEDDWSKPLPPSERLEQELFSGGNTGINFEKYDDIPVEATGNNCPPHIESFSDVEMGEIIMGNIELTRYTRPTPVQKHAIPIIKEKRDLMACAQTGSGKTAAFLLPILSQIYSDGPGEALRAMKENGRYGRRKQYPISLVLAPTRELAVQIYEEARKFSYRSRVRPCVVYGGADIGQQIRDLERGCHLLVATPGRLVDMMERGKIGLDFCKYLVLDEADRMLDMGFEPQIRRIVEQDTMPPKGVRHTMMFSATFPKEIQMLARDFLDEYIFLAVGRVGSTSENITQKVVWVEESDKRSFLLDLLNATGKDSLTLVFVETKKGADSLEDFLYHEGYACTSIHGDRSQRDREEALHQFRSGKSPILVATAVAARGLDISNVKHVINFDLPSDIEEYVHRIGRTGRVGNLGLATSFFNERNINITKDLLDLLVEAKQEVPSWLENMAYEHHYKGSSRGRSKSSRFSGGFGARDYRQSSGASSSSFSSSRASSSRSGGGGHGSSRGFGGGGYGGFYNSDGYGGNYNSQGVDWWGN

Regarding `CCn1c(C(=O)N(C2CC2)C2CC2)cc2c3c(ncn3C)c(Nc3cc(C)n(C)n3)nc21` [BMS-911543], the Kd in assay [1], in assay [2], in assay [3], in assay [4], in assay [5] and in assay [6] was > 30 µM (inactive) in each case. Also, the Kd in assay [7] and in assay [8] was > 30 µM (inactive) in each case.

As to `COc1cc2ncnc(Oc3cccc(NC(=O)Nc4cc(C(C)(C)C(F)(F)F)on4)c3)c2cc1OC` [CEP-32496], the Kd in assay [1] was > 30 µM (inactive); in assay [2], > 30 µM (inactive); in assay [3], 2.82 µM (active); in assay [4], > 30 µM (inactive); in assay [5] it was > 30 µM (inactive); in assay [6], > 30 µM (inactive). In addition, the Kd in assay [7] and in assay [8] was > 30 µM (inactive) each time.

Turning to `Cc1cc(Nc2ncc(Cl)c(Nc3ccccc3S(=O)(=O)C(C)C)n2)c(OC(C)C)cc1C1CCNCC1` [CERITINIB], the Kd in assay [1], in assay [2], in assay [3], in assay [4], in assay [5] and in assay [6] was > 30 µM (inactive) each time. Moreover, the Kd in assay [7] and in assay [8] was > 30 µM (inactive) in each case.

Consider `COc1c(OCCCN2CCOCC2)ccc2c1N=C(NC(=O)c1cnc(N)nc1)N1CCN=C21` [COPANLISIB], for which the Kd in assay [1], in assay [2], in assay [3], in assay [4], in assay [5] and in assay [6] was > 30 µM (inactive) each time. For the same molecule, the Kd in assay [7] and in assay [8] was > 30 µM (inactive) each time.

Regarding `COCC(=O)NC/C=C/c1ccc2ncnc(Nc3ccc(Oc4ccc(C)nc4)c(C)c3)c2c1` [CP-724714], the Kd in assay [1], in assay [2], in assay [3], in assay [4], in assay [5] and in assay [6] was > 30 µM (inactive) throughout. Besides, the Kd in assay [7] and in assay [8] was > 30 µM (inactive) each time.

As for `C#Cc1cccc(Nc2ncnc3cc(OC)c(OCCCCCCC(=O)NO)cc23)c1` [CUDC-101], the Kd in assay [1], in assay [2], in assay [3], in assay [4], in assay [5] and in assay [6] was > 30 µM (inactive) each time. In addition, the Kd in assay [7] and in assay [8] was > 30 µM (inactive) throughout.

In the case of `CCS(=O)(=O)N1CCN(c2ccc(Nc3ncc(C(N)=O)c(NC4CC4)n3)cc2)CC1` [Cerdulatinib Hydrochloride], the Kd is > 30 µM (inactive) in assay [1]; 1.21 µM (active) in assay [2]; > 30 µM (inactive) in assay [3]; > 30 µM (inactive) in assay [4]; > 30 µM (inactive) in assay [5]; > 30 µM (inactive) in assay [6]. Moreover, the Kd in assay [7] and in assay [8] was > 30 µM (inactive) throughout.

With `Cc1nc2cc(-n3ncc(C(=O)c4cc5ccccc5[nH]4)c3N)ccc2[nH]1` [FGFR INHIBITOR DEBIO 1347], the Kd in assay [1], in assay [2], in assay [3], in assay [4], in assay [5] and in assay [6] was > 30 µM (inactive) each time. In addition, the Kd in assay [7] and in assay [8] was > 30 µM (inactive) in each case.

In the case of `O=C(Nc1nc2cccc(-c3ccc(CN4CCS(=O)(=O)CC4)cc3)n2n1)C1CC1` [FILGOTINIB], the Kd in assay [1], in assay [2], in assay [3], in assay [4], in assay [5] and in assay [6] was > 30 µM (inactive) in each case. Moreover, the Kd in assay [7] and in assay [8] was > 30 µM (inactive) in each case.
